In patent US8415327B2, “Methods of and compositions for reducing cell death” (priority 2009, dated 2013):
Entries after “also recorded” stand apart in the source; their conditions may differ.

How the values were obtained:
RGC-5 cells [1] = assay: Menadione-induced cell death in RGC-5 cells (calcein-AM viable cell count); assay type: cell-based; conditions: for neuroprotection against menadione-induced cell death / effectiveness as neuroprotectant compared with PB3: RGC-5 cells; for % of the cells protected from menadione-induced cell death: 17.8 μM menadione, 24 hours; for effectiveness as neuroprotectant compared with PB3: menadione
Procedure: Cell Culture: Cells of RGC-5 (ATCC Deposit Accession No. PTA-6600), a neuronal cell line, were suspended in growth medium and plated in 96-well plates at a density of 2,000 cells per well. After 24 hours in culture, cells were treated with 17.8 μM menadione (Sigma-Aldrich, St. Louis, Mo.). Menadione creates oxidative stress resulting in cell death. PB3, PB4, or PB6 was added to the wells directly before menadione treatment. After 24 hours of menadione treatment, the cells were stained with calcein-AM and photographed.

[2] = system: retinal endothelial cells; assay: Radiation-induced death of retinal endothelial cells, calcein-AM/propidium iodide viability assay; assay type: cell-based, murine; conditions: for rescue: 1 μM at the time of irradiation, 72 hours; for radio-protection: administered before or at the time of irradiation
Procedure: Cell Culture: Murine endothelial cells were isolated from Immortomice, which express a temperature-sensitive Simian virus 40 large T antigen, using sheep anti-rat Dynabeads coated with the rat anti-mouse PECAM-1 monoclonal antibody MEC13.3. […] Irradiation and Viability Assays: The cells were plated onto 1% gelatin coated 96-well plates at a density of 2,000 cells per well. For irradiation, control and treatment groups were removed from the incubator. Treatment groups received single doses of radiation between 1 and 30 Gray using an irradiator containing ^137Cesium (JL Shepherd & Associates) using a rotating platform to ensure uniform delivery. Control groups were left at room temperature during irradiation of the treatment groups. PB1 or PB2 was administered 18 hours before, immediately before, or 18 hours after irradiation. Media was aspirated 48 or 72 hours after irradiation using a 30 gauge needle and the cells were incubated in staining containing calcein-AM and propidium iodide in PBS for 30 minutes at room temperature in the dark. Digital photomicrographs of the wells were taken at a total magnification of 200× on a Zeiss Axiovert inverted microscope under epifluorescence. Calcein-positive (viable) and propidium iodide-positive (dead) cells were counted using NIH ImageJ software. Statistical significance was determined using the Student's t-tests.

RGC-5 cells [3] = assay: Rescue of RGC-5 cells from METC-active drugs (menadione, rotenone, antimycin A), calcein/propidium iodide viability assay; conditions: for protection/rescue from death induced by menadione, rotenone and antimycin A: RGC-5 cells, 24 hours co-incubation; for rescue of RGC-5 cells at higher concentrations: most likely due to toxicity; for viability (live cells compared to untreated controls): 24 hours
Procedure: Cell Culture: RGC-5 cells were cultured in Dulbecco's modified Eagle's medium (DMEM) (Mediatech, Inc., Manassas, Va.). containing 1 g/L glucose, supplemented with 10% fetal bovine serum, 100 U/mL penicillin, and 100 μg/mL streptomycin (Mediatech, Inc.). Cells were passaged every 48 to 72 hours when cells were approximately 60 to 75% confluent, replated at a 1:20 dilution in a 75 cm^2 flask in 20 ml of cell culture media and incubated at 37° C. in humidified 5% CO2. Experiments were performed in duplicate or triplicate.
Cell Treatment and Assessment of Viability: Cells were plated in 96-well plates at a density of 60 cells/mm^2 in 50 μL of media. Approximately 24 hours after plating, 50 μL of media containing either menadione, rotenone, or antimycin A, either with or without PB1 and PB2, was added to the cells to generate the final concentrations of 10 nM, 1 μM, or 100 μM. Control wells received media containing vehicle alone. Following 24 hours of treatment, media was aspirated from wells using a 25-gauge needle and cells stained with calcein-AM (10 μg/mL) and propidium iodide (1 μg/mL) (both Invitrogen, Carlsbad, Calif.) in PBS for 30 minutes. The staining solution was aspirated using a 25-gauge needle and replaced with PBS. Three randomly chosen fields per well were photographed on an Axiovert 135 microscope under epifluorescence with a Nikon D70s digital SLR camera (Nikon, Melville, N.Y.) at a resolution of 3008×2000 pixels and an exposure time of 1.6 seconds. Live (calcein-positive) and dead (propidium iodide-positive) cells were assessed using Image) software. Pictures were batch analyzed using a macro containing the following actions: subtract background, threshold, erode, erode, watershed, and analyze particles between the sizes of 1000 pixels and infinity. […] Each experiment was analyzed with respect to its own set of controls to account for variation in passage number of the RGC-5 cells and small differences between batches of cryopreserved RGC-5 cells.
Statistics: Viability was assessed as number of live cells/mm^2, and compared to the untreated controls of each experiment. Means were compared using Student's unpaired t-test.
RGC-5 cells plated in 96-well plates were treated for 24 hours with the redox cycling agent menadione, the complex I inhibitor rotenone, or the complex III inhibitor antimycin A, at final concentrations ranging from 100 nM to 31.6 μM (menadione) or 1 μM to 316 μM (rotenone or antimycin A). […] RGC-5 cells were co-incubated with these mitochondrial electron transporter chain (METC)-drugs and the borane-phosphines PB1 or PB2 for 24 hours, followed by assessment of cell viability by calcein/propidium iodide assay. TCEP (100 μM) served as a positive control.

[4] = Superoxide scavenging (hydroethidine fluorescence, xanthine/xanthine oxidase); assay type: biochemical
Procedure: Superoxide scavenging: The ability of PB1 and PB2 to scavenge superoxide was quantified essentially as described ([…] et al., Invest. Opthalmol. Vis. Sci. 47:3878 (2006)). Essentially, fluorescence of hydroethidine was measured after exposure to superoxide generated by xanthine/xanthine oxidase, in the presence or absence of PB1, PB2, or polyethylene glycol-conjugated superoxide dismutase used as positive control.

[5] = Sulfhydryl reducing activity (DTNB); assay type: biochemical
Procedure: Sulfhydryl reducing activity: Sulfhydryl reducing activity was measured with 5-5′-dithio-bis(2-nitrobenzoic acid) (DTNB), which undergoes a colorimetric change when its disulfide linkage is reduced. Reaction of various concentrations of dithiothreitol, tris(carboxyethyl)phosphine, PB1, or PB2 with 30 mM DTNB in methanol was carried out in buffer at pH 5, 7, and 9. The sulfhydryl reduction potentials of PB1 and PB2 were assessed both before and after borane deprotection with DABCO.

[6] = system: retinal endothelial cells; assay: Protection of retinal endothelial cells from H2O2 oxidative damage; assay type: cell-based, murine; conditions: for most effective concentration against oxidative insults: tested at 1-1000 μM
Procedure: Cell Culture: Murine endothelial cells were cultured as described in Experiment 3. Endothelial cells were treated directly with high levels of H2O2 in the absence or presence of PB1 and PB2 at a concentrations of 1-1000 μM.

| SMILES | neuroprotection against menadione-induced cell death (RGC-5 cells [1]) | % of the cells protected from menadione-induced cell death (RGC-5 cells [1]; compound 1 μM) [%] | rescue ([2]; 3 Gy) [%] | radio-protection [2] | protection/rescue from death induced by menadione, rotenone and antimycin A (RGC-5 cells [3]) | rescue of RGC-5 cells at higher concentrations (RGC-5 cells [3]) | superoxide scavenging as mechanism of protection [4] | disulfide reduction as mechanism of protection [5] | most effective concentration against oxidative insults ([6]; H2O2) [µM] | effectiveness as neuroprotectant compared with PB3 (RGC-5 cells [1]) | also measured |
| --- | --- | --- | --- | --- | --- | --- | --- | --- | --- | --- | --- |
| B.CCCCCCOC(=O)CCP(CCC(=O)OCCCCCC)c1ccccc1 [PB3, bis(3-propionic acid hexyl ester)phenylphosphine borane complex] | neuroprotective | 46.4±16.8 |  |  |  |  |  |  |  |  | % of the cells protected from menadione-induced cell death (RGC-5 cells [1]; compound 10 μM): 38.3±12.2%; % of the cells protected from menadione-induced cell death (RGC-5 cells [1]; compound 100 μM): 30.9±4.3% |
| [BH3-][P+](CCC(=O)OC)(c1ccccc1)c1ccccc1 [PB2, (3-propionic acid methyl ester)diphenylphosphine borane complex] |  |  | 46 | effective radio-protectants | significant rescue; also recorded: significant protection | little or no rescue | not superoxide scavenging | involves disulfide reduction | 1 |  | toxicity to RGC-5 cells (RGC-5 cells [3]): toxic; viable cell counts, % of control ([6]; 1 µM): 9.0±1.6% |
| [BH3-][P+](CCC(=O)OC)(CCC(=O)OC)c1ccccc1 [PB1, bis(3-propionic acid methyl ester)phenylphosphine borane complex] |  |  | 35 | effective radio-protectants | significant rescue; also recorded: significant protection | little or no rescue | not superoxide scavenging | involves disulfide reduction | 1 |  | protection against radiation exposures ([2]; 100 nM, 18 hours after irradiation, all radiation exposures tested): significant protection; viable cell counts, % of non-irradiated control ([2]; 1 μM administered at the time of irradiation, 3 Gy, 72 hours after irradiation, 29±6% without compound): 54±6%; radiomitigation: change in viable cell counts ([2]; administered 18 hours after exposure to ionizing radiation up to 30 Gy): significant increases in viable cell counts; protection against radiation exposure ([2]; all PB1 treatment levels, 18 hours after irradiation, 30 Gy, p<0.05): significant protection; viability (live cells compared to untreated controls) (RGC-5 cells [3]; antimycin A, compound 100 μM, vs. 34±2% without compound): 74±4%; viability (live cells compared to untreated controls) (RGC-5 cells [3]; menadione, compound 100 μM, vs. 34±4% without compound): 83±5%; viability (live cells compared to untreated controls) (RGC-5 cells [3]; rotenone, PB1 concentration not restated (100 μM in preceding sentence), vs. 25±3% without compound): 36±3%; viable cell counts, % of control ([6]; H2O2, compound 1 μM, 24 hours, 4.2±1.1% without compound): 10.8±2.3% |
| [BH3-][P+](CCC(=O)OCCCCCC)(c1ccccc1)c1ccccc1 [PB4, (3-propionic acid hexyl ester)diphenylphosphine borane complex] | neuroprotective | 19.0±5.5 |  |  |  |  |  |  |  | less effective neuroprotectants than PB3 |  |
| [BH3-][P+](CC(=O)NCC)(c1ccccc1)c1ccccc1 [PB6, (2-Ethyl acetamide)diphenylphosphine borane complex] | neuroprotective |  |  |  |  |  |  |  |  | less effective neuroprotectants than PB3 | % of the cells protected from menadione-induced cell death (RGC-5 cells [1]; compound 10 pM): 25.6±8.4% |
